The values below come from patent US20240190858A1, “CRYSTALLINE FORMS, PHARMACEUTICAL COMPOSITIONS AND METHODS OF USE THEREOF” (priority 2022, published 2024).

Series [1] can be described thus: Oral pharmacokinetics in cynomolgus monkey. The series is classed as in vivo, cynomolgous monkeys. The note with it: 3 mg/kg via oral gavage, n=3. An excerpt:
The dotted lines indicate the HAP1 MTAP-null and MTAP WT GI50s from a 7-day viability assay the compound. The data is presented as mean±SD.

In series [2] the test system is MTAP-null OCI-LY19 cell line tumors. Kind of series: OCI-LY19 MTAP-null xenograft, switch from TNG908 to compound of Formula (I). The series is classed as in vivo, mice. Conditions: 120 mg/kg BID. An excerpt: The data is shown in FIG. 10A and FIG. 10B as mean±SEM. Regression is defined as final mean tumor volume <30% initial mean tumor volume.
Series [3] has as its system MTAP-null NCI-H838 NSCLC CDX. The experiment in a line: MTAP-null NCI-H838 NSCLC CDX model, combination with AGI-41998. Format: in vivo. Conditions: AGI-41998 at 10 mg/kg QD, minimum of 28 days. On the procedure: Briefly the groups were treated for a minimum of 28 days and tumor-volumes were monitored for the indicated time period.

`CCc1cc(NC(=O)C(=O)N2C[C@@H](C)CC[C@@H]2c2ccc3sc(C4CCN(C)CC4)nc3c2)cnc1N` [compound of Formula (I), N-(6-amino-5-ethylpyridin-3-yl)-2-((2R,5S)-5-methyl-2-(2-(1-methylpiperidin-4-yl)benzo[d]thiazol-5-yl)piperidin-1-yl)-2-oxoacetamide]: the pharmacokinetic properties entry in series [1] was “good pharmacokinetic properties”. `Cc1cc(NC(=O)C(=O)N2C[C@@H](C)CC[C@@H]2c2ccc3scnc3c2)cnc1N` [TNG908]: the “tumor response under continuous dosing” value in series [2] is listed as “appear to have developed resistance”. Take AGI-41998: the “change in tumor volume” value in series [3] is on record as “increases in tumor volumes”.
